This note sets out measurements from US11840686B2, “Modulation of prekallikrein (PKK) expression” (Ionis Pharmaceuticals, Inc., priority 2013, dated 2023).

Strand notation (5' to 3'): a small letter for the sugar, then the base; units joined by * are phosphorothioate-linked, units joined directly phosphodiester-linked; [ ] holds rarer units or linkages, { } end groups; capitals alone tell only the bases. e = 2'-O-(2-methoxyethyl) (MOE); k = constrained ethyl (cEt); [5mC] = 5-methylcytosine; d = 2'-deoxy (DNA)

The test system of one data set is human PKK mRNA. The data set can be described thus: Antisense inhibition of human PKK mRNA in HepaRG cells, 1,000 nM, MOE/deoxy/cEt oligonucleotides (Example 3). Particulars: HepaRG cells, electroporation with 1,000 nM antisense oligonucleotide, approximately 24 hours, primer probe set RTS3454, relative to untreated control cells; experiment of Table 23. The format is cell-based. In outline:
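HepaRG cells at 20,000 per well electroporated with 1,000 nM 16-mer MOE/cEt/deoxy gapmers (phosphorothioate, 5-methylcytosine). After about 24 h, PKK mRNA measured by qRT-PCR with primer probe set RTS3454, normalized to RIBOGREEN total RNA. Reported as percent inhibition versus untreated cells.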
With “547920 (eG*eA*kG*dA*dA*d[5mC]*d[5mC]*d[5mC]*dT*dG*dG*d[5mC]*dA*kA*k[5mC]*eA; antisense) [compound 547920]”, the “% inhibition” value stood at 52%.

Regarding “547921 (eT*eG*kA*dG*dA*dA*d[5mC]*d[5mC]*d[5mC]*dT*dG*dG*d[5mC]*kA*kA*e[5mC]; antisense) [compound 547921]”, the “% inhibition” value is recorded as 43%. As to “547923 (eA*eT*k[5mC]*dT*dG*dG*dA*dG*dT*dG*dA*dG*dA*kA*k[5mC]*e[5mC]; antisense) [compound 547923]”, the “% inhibition” value stood at 68%. Same read-out and setting: in the case of “547924 (eG*eT*k[5mC]*d[5mC]*dG*dA*d[5mC]*dA*d[5mC]*dA*d[5mC]*dA*dA*kA*kA*eG; antisense) [compound 547924]” it was 53%; in that of “547925 (eG*eG*kT*d[5mC]*d[5mC]*dG*dA*d[5mC]*dA*d[5mC]*dA*d[5mC]*dA*kA*kA*eA; antisense) [compound 547925]”, 16%; in that of “547928 (eG*eA*kT*dG*dG*dT*d[5mC]*d[5mC]*dG*dA*d[5mC]*dA*d[5mC]*kA*k[5mC]*eA; antisense) [compound 547928]”, 70%.

In the case of “547929 (eA*eG*kA*dT*dG*dG*dT*d[5mC]*d[5mC]*dG*dA*d[5mC]*dA*k[5mC]*kA*e[5mC]; antisense) [compound 547929]”, the “% inhibition” value was found to be 65%.

For the substance “547930 (eT*eG*kA*dT*dA*dG*dG*dT*dG*d[5mC]*dA*dG*dA*kT*kG*eG; antisense) [compound 547930]”, the “% inhibition” value is on record as 48%.

Take “547931 (eG*eT*kG*dA*dT*dA*dG*dG*dT*dG*d[5mC]*dA*dG*kA*kT*eG; antisense) [compound 547931]”: the “% inhibition” value was 58%. On to “547932 (e[5mC]*eG*kA*dT*dT*dT*dT*d[5mC]*d[5mC]*dA*dT*dA*d[5mC]*kA*kT*eT; antisense) [compound 547932]”, for which the “% inhibition” value amounted to 33%. Still for that read-out and setting: next, “547933 (eT*e[5mC]*kG*dA*dT*dT*dT*dT*d[5mC]*d[5mC]*dA*dT*dA*k[5mC]*kA*eT; antisense) [compound 547933]”: 44%; “547934 (e[5mC]*eT*k[5mC]*dG*dA*dT*dT*dT*dT*d[5mC]*d[5mC]*dA*dT*kA*k[5mC]*eA; antisense) [compound 547934]”: 38%.

As for “547935 (eA*e[5mC]*kT*d[5mC]*dG*dA*dT*dT*dT*dT*d[5mC]*d[5mC]*dA*kT*kA*e[5mC]; antisense) [compound 547935]”, the “% inhibition” value turned out to be 27%. Consider “547936 (eG*eA*k[5mC]*dT*d[5mC]*dG*dA*dT*dT*dT*dT*d[5mC]*d[5mC]*kA*kT*eA; antisense) [compound 547936]”, for which the “% inhibition” value is reported as 44%. As for “547937 (eT*eG*kT*dG*dA*d[5mC]*dT*d[5mC]*dG*dA*dT*dT*dT*kT*k[5mC]*e[5mC]; antisense) [compound 547937]”, the “% inhibition” value worked out at 56%. Still for that read-out and setting: in the case of “547938 (eT*eT*kG*dT*dG*dA*d[5mC]*dT*d[5mC]*dG*dA*dT*dT*kT*kT*e[5mC]; antisense) [compound 547938]” it was 56%; in that of “547939 (eT*eT*kT*dG*dT*dG*dA*d[5mC]*dT*d[5mC]*dG*dA*dT*kT*kT*eT; antisense) [compound 547939]”, 70%.

Staying with this data set, now noted: Table 20; HepaRG cells, electroporation with 1,000 nM antisense oligonucleotide, approximately 24 hours; PKK mRNA by RT-PCR (RTS3454), relative to untreated control cells.
As to “547917 (eA*e[5mC]*k[5mC]*d[5mC]*dT*dG*dG*d[5mC]*dA*dA*d[5mC]*dA*dT*k[5mC]*k[5mC]*eA; antisense) [compound 547917]”, the “% inhibition” value was found to be 33%.

Take “547918 (eA*eA*k[5mC]*d[5mC]*d[5mC]*dT*dG*dG*d[5mC]*dA*dA*d[5mC]*dA*kT*k[5mC]*e[5mC]; antisense) [compound 547918]”: the “% inhibition” value was found to be 1%. On the same count and under the same terms, in the case of “547919 (eG*eA*kA*d[5mC]*d[5mC]*d[5mC]*dT*dG*dG*d[5mC]*dA*dA*d[5mC]*kA*kT*e[5mC]; antisense) [compound 547919]” it was 41%.

The data set is the same for the next values; noted with them: Table 22 experiment; HepaRG cells, electroporation with 1,000 nM antisense oligonucleotide, approx. 24 hours; PKK mRNA by RT-PCR (RTS3454), relative to untreated control cells.
With “547917 (eA*e[5mC]*k[5mC]*d[5mC]*dT*dG*dG*d[5mC]*dA*dA*d[5mC]*dA*dT*k[5mC]*k[5mC]*eA; antisense) [compound 547917]”, the “% inhibition” value amounted to 54%.

Turning to “547918 (eA*eA*k[5mC]*d[5mC]*d[5mC]*dT*dG*dG*d[5mC]*dA*dA*d[5mC]*dA*kT*k[5mC]*e[5mC]; antisense) [compound 547918]”, the “% inhibition” value is 65%. Take “547919 (eG*eA*kA*d[5mC]*d[5mC]*d[5mC]*dT*dG*dG*d[5mC]*dA*dA*d[5mC]*kA*kT*e[5mC]; antisense) [compound 547919]”: the “% inhibition” value was 73%.
